Measured values as given in patent US20150239889A1, “PYRAZOLOPYRIMIDINE COMPOUND” (MITSUBISHI TANABE PHARMA CORPORATION, priority 2012, published 2015).

Tests used:
human HIF-PHD2 = molecular target: T1, human HIF-PHD2 (Homo sapiens, UniProt Q9GZT9); test: HIF-PHD inhibition assay (fluorescence polarization), human HIF-PHD2; format: biochemical; conditions: 2-oxoglutaric acid 3.33 μmol/L
T1 construct: purchased CrystalGenomics Ltd
Method: (§1) The activity of the test compound to inhibit human HIF-PHD2 and human HIF-PHD3 was determined.
(§2) The value of enzyme activity was calculated by subtracting the value of fluorescence polarization before addition of the enzyme from the value of fluorescence polarization after addition of enzyme (mP value).
(§3) FAM: 5′-fluoresceinamide ACA: aminocaproic acid

human HIF-PHD3 = molecular target: T2, human HIF-PHD3 (Homo sapiens, UniProt Q9H6Z9); test: HIF-PHD inhibition assay (fluorescence polarization), human HIF-PHD3; format: biochemical; conditions: 2-oxoglutaric acid 166 μmol/L
T2 construct: purchased CrystalGenomics Ltd
Method: as §1, §2, §3

T2 sequence (Q9H6Z9 whole entry): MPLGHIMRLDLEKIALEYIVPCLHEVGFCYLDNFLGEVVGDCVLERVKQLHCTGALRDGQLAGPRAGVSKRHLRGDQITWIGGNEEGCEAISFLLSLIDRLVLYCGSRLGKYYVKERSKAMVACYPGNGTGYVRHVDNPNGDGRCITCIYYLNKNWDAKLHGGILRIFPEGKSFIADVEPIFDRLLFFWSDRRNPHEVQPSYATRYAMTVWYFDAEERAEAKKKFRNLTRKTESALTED
T1 sequence (Q9GZT9 2-426 limits assumed): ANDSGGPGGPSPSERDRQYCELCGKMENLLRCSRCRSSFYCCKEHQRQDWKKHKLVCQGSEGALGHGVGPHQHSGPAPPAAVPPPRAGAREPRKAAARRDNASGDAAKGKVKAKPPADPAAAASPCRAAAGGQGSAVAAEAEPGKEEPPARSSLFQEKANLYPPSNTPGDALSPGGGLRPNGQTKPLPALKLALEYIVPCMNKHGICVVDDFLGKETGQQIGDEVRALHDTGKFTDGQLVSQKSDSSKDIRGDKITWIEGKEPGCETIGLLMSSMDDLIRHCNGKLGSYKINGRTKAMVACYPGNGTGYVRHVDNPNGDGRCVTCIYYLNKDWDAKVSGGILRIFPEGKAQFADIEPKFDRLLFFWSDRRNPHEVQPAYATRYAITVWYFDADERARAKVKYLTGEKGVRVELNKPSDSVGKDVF

| Structure (SMILES) | IC50 (human HIF-PHD2) [µM] | IC50 (human HIF-PHD3) [µM] |
| --- | --- | --- |
| C[C@@H](c1ccccc1Cl)n1ncc2nc(-n3cc(C(=O)O)cn3)nc(O)c21 [Example 257] | 0.2 | 0.87 |
| C[C@@H](c1cccc(C(F)(F)F)c1)n1ncc2nc(-n3cc(C(=O)O)cn3)nc(O)c21 [Example 258] | 0.038 | 0.42 |
| Cc1ccc([C@H](C)n2ncc3nc(-n4cc(C(=O)O)cn4)nc(O)c32)cc1C [Example 259] | 0.044 | 0.69 |
| COc1ccc([C@H](C)n2ncc3nc(-n4cc(C(=O)O)cn4)nc(O)c32)cc1 [Example 260] | 0.048 | 0.95 |
| Cc1cccc([C@H](C)n2ncc3nc(-n4cc(C(=O)O)cn4)nc(O)c32)c1 [Example 262] | 0.029 | 0.36 |
| Cc1ccccc1[C@H](C)n1ncc2nc(-n3cc(C(=O)O)cn3)nc(O)c21 [Example 265] | 0.16 | 0.78 |
| Cc1cc(Cl)cc([C@H](C)n2ncc3nc(-n4cc(C(=O)O)cn4)nc(O)c32)c1 [Example 267] | 0.086 | 0.53 |
| C[C@H](c1cc(Cl)cc(C(F)(F)F)c1)n1ncc2nc(-n3cc(C(=O)O)cn3)nc(O)c21 [Example 268] | 0.1 | 0.89 |
| C[C@@H](c1cc(Cl)cc(C(F)(F)F)c1)n1ncc2nc(-n3cc(C(=O)O)cn3)nc(O)c21 [Example 269] | 0.042 | 0.37 |
| C[C@H](c1ccc(Cl)c(F)c1)n1ncc2nc(-n3cc(C(=O)O)cn3)nc(O)c21 [Example 270] | 0.048 | 0.44 |
| C[C@@H](c1ccc(Cl)c(F)c1)n1ncc2nc(-n3cc(C(=O)O)cn3)nc(O)c21 [Example 271] | 0.012 | 0.26 |
| C[C@@H](c1cc(C(F)(F)F)cc(C(F)(F)F)c1)n1ncc2nc(-n3cc(C(=O)O)cn3)nc(O)c21 [Example 272] | 0.079 | 0.98 |
| C[C@H](c1cc(F)cc(C(F)(F)F)c1)n1ncc2nc(-n3cc(C(=O)O)cn3)nc(O)c21 [Example 273] | 0.092 | 0.52 |
| C[C@@H](c1cc(F)cc(C(F)(F)F)c1)n1ncc2nc(-n3cc(C(=O)O)cn3)nc(O)c21 [Example 274] | 0.038 | 0.38 |
| C[C@@H](c1cc(C(F)(F)F)ccc1C(F)(F)F)n1ncc2nc(-n3cc(C(=O)O)cn3)nc(O)c21 [Example 275] | 0.12 | 0.92 |
| C[C@@H](c1ccc(OC(F)(F)F)cc1)n1ncc2nc(-n3cc(C(=O)O)cn3)nc(O)c21 [Example 276] | 0.015 | 0.38 |
| Cc1ccc([C@@H](C)n2ncc3nc(-n4cc(C(=O)O)cn4)nc(O)c32)cc1C(F)(F)F [Example 277] | 0.061 | 0.61 |
| Cc1ccc([C@H](C)n2ncc3nc(-n4cc(C(=O)O)cn4)nc(O)c32)cc1C(F)(F)F [Example 278] | 0.12 | 0.42 |
| C[C@@H](c1cccc(Cl)c1F)n1ncc2nc(-n3cc(C(=O)O)cn3)nc(O)c21 [Example 279] | 0.12 | 0.56 |
| C[C@H](c1ccc(C(F)(F)F)c(F)c1)n1ncc2nc(-n3cc(C(=O)O)cn3)nc(O)c21 [Example 280] | 0.062 | 0.85 |
| C[C@@H](c1ccc(C(F)(F)F)c(F)c1)n1ncc2nc(-n3cc(C(=O)O)cn3)nc(O)c21 [Example 281] | 0.02 | 0.45 |
| C[C@@H](c1cc(Cl)ccc1F)n1ncc2nc(-n3cc(C(=O)O)cn3)nc(O)c21 [Example 282] | 0.077 | 1.4 |
| Cc1ccc(C)c([C@H](C)n2ncc3nc(-n4cc(C(=O)O)cn4)nc(O)c32)c1 [Example 283] | 0.068 | > 3 |
| C[C@H](c1ccc(C(F)(F)F)cc1)n1ncc2nc(-n3cc(C(=O)O)cn3)nc(O)c21 [Example 284] | 0.15 | 0.83 |
| Cc1ccc(C(F)(F)F)cc1[C@@H](C)n1ncc2nc(-n3cc(C(=O)O)cn3)nc(O)c21 [Example 285] | 0.076 | 0.87 |
| Cc1ccc(C(F)(F)F)cc1[C@H](C)n1ncc2nc(-n3cc(C(=O)O)cn3)nc(O)c21 [Example 286] | 0.096 | 0.82 |
| Cc1ccc(F)cc1[C@H](C)n1ncc2nc(-n3cc(C(=O)O)cn3)nc(O)c21 [Example 287] | 0.048 | 0.84 |

| Structure (SMILES) | IC50 (human HIF-PHD2) [µM] | IC50 (human HIF-PHD3) [µM] |
| --- | --- | --- |
| C[C@@H](c1cc(C(F)(F)F)ccc1F)n1ncc2nc(-n3cc(C(=O)O)cn3)nc(O)c21 [Example 288] | 0.18 | 0.48 |
| C[C@@H](c1ccc2c(c1)CCC2)n1ncc2nc(-n3cc(C(=O)O)cn3)nc(O)c21 [Example 289] | 0.03 | 0.21 |
| C[C@@H](c1ccc2c(c1)CCCC2)n1ncc2nc(-n3cc(C(=O)O)cn3)nc(O)c21 [Example 290] | 0.038 | 0.4 |
| Cc1ccc(C(C)n2ncc3nc(-n4cc(C(=O)O)cn4)nc(O)c32)cc1 (stereo not drawn) [Example 291] | 0.072 | 0.73 |
| Cc1cc(C(C)n2ncc3nc(-n4cc(C(=O)O)cn4)nc(O)c32)ccc1Cl (stereo not drawn) [Example 293] | 0.061 | 0.51 |
| Cc1ccc(C(C)n2ncc3nc(-n4cc(C(=O)O)cn4)nc(O)c32)cc1F (stereo not drawn) [Example 295] | 0.064 | 0.7 |
| Cc1ccc(C(C)n2ncc3nc(-n4cc(C(=O)O)cn4)nc(O)c32)cc1Cl (stereo not drawn) [Example 297] | 0.066 | 0.66 |
| Cc1cc(F)cc(C(C)n2ncc3nc(-n4cc(C(=O)O)cn4)nc(O)c32)c1 (stereo not drawn) [Example 299] | 0.079 | 0.7 |
| Cc1cc(C(C)n2ncc3nc(-n4cc(C(=O)O)cn4)nc(O)c32)ccc1F (stereo not drawn) [Example 301] | 0.054 | 0.71 |
| CC(c1ccc(F)c(C(F)(F)F)c1)n1ncc2nc(-n3cc(C(=O)O)cn3)nc(O)c21 (stereo not drawn) [Example 303] | 0.078 | 0.61 |
| CC(c1cc(F)cc(Cl)c1)n1ncc2nc(-n3cc(C(=O)O)cn3)nc(O)c21 (stereo not drawn) [Example 305] | 0.059 | 0.59 |
| CC(c1cc(Cl)cc(Cl)c1)n1ncc2nc(-n3cc(C(=O)O)cn3)nc(O)c21 (stereo not drawn) [Example 307] | 0.045 | 0.5 |
| Cc1cc(C)cc(C(C)n2ncc3nc(-n4cc(C(=O)O)cn4)nc(O)c32)c1 (stereo not drawn) [Example 309] | 0.094 | 0.68 |
| Cc1ccc(Cl)cc1C(C)n1ncc2nc(-n3cc(C(=O)O)cn3)nc(O)c21 (stereo not drawn) [Example 311] | 0.067 | 0.77 |
| Cc1ccc(F)c(C(C)n2ncc3nc(-n4cc(C(=O)O)cn4)nc(O)c32)c1 (stereo not drawn) [Example 313] | 0.04 | 0.9 |
| CC(c1ccc(Cl)c(C(F)(F)F)c1)n1ncc2nc(-n3cc(C(=O)O)cn3)nc(O)c21 (stereo not drawn) [Example 315] | 0.045 | 0.88 |
| C[C@@H](c1ccc(OC(F)(F)F)c(F)c1)n1ncc2nc(-n3cc(C(=O)O)cn3)nc(O)c21 [Example 317] | 0.019 | 0.52 |
| C[C@@H](c1ccc(OC(F)(F)F)c(Cl)c1)n1ncc2nc(-n3cc(C(=O)O)cn3)nc(O)c21 [Example 318] | 0.016 | 0.29 |
| CC(c1cc(Cl)c(Cl)s1)n1ncc2nc(-n3cc(C(=O)O)cn3)nc(O)c21 (stereo not drawn) [Example 319] | 0.085 | 0.52 |
| O=C(O)c1cnn(-c2nc(O)c3c(cnn3Cc3ccc(C4CC4)cc3)n2)c1 [Example 321] | 0.011 | 0.19 |
| CCC(c1ccc(Cl)cc1)n1ncc2nc(-n3cc(C(=O)O)cn3)nc(O)c21 (stereo not drawn) [Example 322] | 0.048 | 0.18 |
| CCC(c1ccc(F)cc1)n1ncc2nc(-n3cc(C(=O)O)cn3)nc(O)c21 (stereo not drawn) [Example 324] | 0.095 | 0.65 |
| CCC(c1ccc(C)cc1)n1ncc2nc(-n3cc(C(=O)O)cn3)nc(O)c21 (stereo not drawn) [Example 328] | 0.06 | 0.53 |
| CCC(c1ccc(F)c(F)c1)n1ncc2nc(-n3cc(C(=O)O)cn3)nc(O)c21 (stereo not drawn) [Example 330] | 0.036 | 0.58 |
| CCC(c1cc(F)cc(F)c1)n1ncc2nc(-n3cc(C(=O)O)cn3)nc(O)c21 (stereo not drawn) [Example 332] | 0.045 | 0.55 |
| CCC(c1cc(C(F)(F)F)cc(C(F)(F)F)c1)n1ncc2nc(-n3cc(C(=O)O)cn3)nc(O)c21 (stereo not drawn) [Example 334] | 0.26 | 2.5 |
| CC[C@@H](c1ccc(Cl)c(Cl)c1)n1ncc2nc(-n3cc(C(=O)O)cn3)nc(O)c21 [Example 336] | 0.023 | 0.17 |
